For data set [1], the system named is Hedgehog. Description: Luciferase reporter assay, Hedgehog, HeLa. The class given is cell-based, human. As to conditions: Homo sapiens; HeLa cells; inducer PMA; dash: not inhibited by more than 40% at 50 µmol/L. The protocol:
(§1) Hela cells (or T98G cells) from ATCC were plated in white opaque 384-well plates at a density of 4300 cells/well in 30 µL of growth medium (DMEM with 10% FBS and 1% Pen/Strep). The next day, the medium was aspirated and replaced with DMEM containing 1% FBS. The cells were transfected with respective plasmids using X-tremeGENE HP DNA transfection reagent (Roche). After 24 h of transfection, the test agents were added to the transfected cells, followed 30 min later by an inducing agent: interleukin 6 (IL-6) for Stat3, TGF-β for Smad, m-wnt3a for Wnt and PMA for AP-1, NF-κB, E2F, Myc, ETS, Notch and Hedgehog. No inducer was added for FoXO and pTK. After 4 h or 6 h of induction, the cells were lysed via the addition of the One-Glo luciferase assay system (Promega; Madison, WI). The light output was detected in a GloMax®-Multi+ Detection System with Instinct® Software (Promega E 8051). This luciferase assay determines if the test agent is able to inhibit the activation of cancer-related signaling pathways. In the case of FoxO, the enhanced luciferase activity via the test agent was assessed.

The test system of data set [2] is AP-1. Description: Luciferase reporter assay, AP-1, HeLa. In kind it is cell-based, human. The protocol:
as §1

In data set [3] the test system is NF-κB. Description: Luciferase reporter assay, NF-κB, HeLa. Conditions: Homo sapiens; HeLa cells; inducer PMA; dash: not inhibited by more than 40% at 50 µmol/L. In kind it is cell-based. The protocol:
as §1

Data set [4] relates to ETS. Description: Luciferase reporter assay, ETS, HeLa. The class given is cell-based, human. As to conditions: Homo sapiens; HeLa cells; inducer PMA; dash: not inhibited by more than 40% at 50 µmol/L. The protocol: as §1
The test system of data set [5] is Smad2/3. Description: Luciferase reporter assay, Smad2/3, HeLa. In kind it is cell-based, human. Conditions: Homo sapiens; HeLa cells; inducer TGF-beta; dash: not inhibited by more than 40% at 50 µmol/L. On the procedure: as §1
Data set [6] concerns Notch. Description: Luciferase reporter assay, Notch, HeLa. In kind it is cell-based. Conditions: Homo sapiens; HeLa cells; inducer PMA; dash: not inhibited by more than 40% at 50 µmol/L. On the procedure: as §1
Data set [7] deals with Stat3. Description: Luciferase reporter assay, Stat3, HeLa. Conditions: Homo sapiens; HeLa cells; inducer IL6; dash: not inhibited by more than 40% at 50 µmol/L. The class given is cell-based, human. On the procedure: as §1
The subject of data set [8] is E2F. Description: Luciferase reporter assay, E2F, HeLa. The class given is cell-based, human. On the procedure: as §1
The test system of data set [9] is panel of transcription factors (cancer-related signaling pathways). Description: Luciferase reporter panel, summary over pathways, HeLa. As to conditions: Homo sapiens; HeLa cells; read-out: IC50, span over signaling pathways. In kind it is cell-based. On the procedure:
as §1

The test system of data set [10] is FoxO. Description: Luciferase reporter assay, FoxO, HeLa. The class given is cell-based. As to conditions: Homo sapiens; HeLa cells; no inducer; dash: no activity detected; read-out: IC50, FoxO (None). On the procedure:
as §1

In data set [11] the test system is Myc. Description: Luciferase reporter assay, Myc, HeLa. In kind it is cell-based. Conditions: Homo sapiens; HeLa cells; inducer PMA; dash: not inhibited by more than 40% at 50 µmol/L. On the procedure:
as §1

Data set [12] relates to Wnt. Description: Luciferase reporter assay, Wnt, HeLa. As to conditions: Homo sapiens; HeLa cells; inducer m-wnt3a; dash: not inhibited by more than 40% at 50 µmol/L. In kind it is cell-based. On the procedure:
as §1

The subject of data set [13] is Smad2/3. Also noted: method as in PMID 36235141. As to conditions: T98G glioblastoma multiforme cells; inducer TGF-beta; cited from earlier work.
For data set [14], the system named is Hedgehog. Also noted: method as in PMID 36235141. As to conditions: T98G glioblastoma multiforme cells; inducer PMA; cited from earlier work.
For data set [15], the system named is Stat3. The arrangement: method as in PMID 36235141. As to conditions: T98G glioblastoma multiforme cells; inducer IL6; cited from earlier work.
Data set [16] relates to NF-κB. Also noted: method as in PMID 36235141. Conditions: T98G glioblastoma multiforme cells; inducer PMA; cited from earlier work.
Data set [17] relates to AP-1. Also noted: method as in PMID 36235141. Conditions: T98G glioblastoma multiforme cells; inducer PMA; cited from earlier work.
The subject of data set [18] is Wnt. Also noted: method as in PMID 36235141. As to conditions: T98G glioblastoma multiforme cells; inducer m-wnt3a; cited from earlier work.
Data set [19] concerns Myc. Also noted: method as in PMID 36235141. As to conditions: T98G glioblastoma multiforme cells; inducer PMA; cited from earlier work.
In data set [20] the test system is Notch. Also noted: method as in PMID 36235141. As to conditions: T98G glioblastoma multiforme cells; inducer PMA; cited from earlier work.
Data set [21] relates to ETS. Also noted: method as in PMID 36235141. As to conditions: T98G glioblastoma multiforme cells; inducer PMA; cited from earlier work.
Data set [22] relates to E2F. The arrangement: method as in PMID 36235141. Conditions: T98G glioblastoma multiforme cells; inducer PMA; cited from earlier work.
Data set [23] in a line: Cytotoxicity, Neutral Red, Vero. Conditions: monkey, Vero kidney fibroblasts, Na = not active up to 50 µg/mL. In kind it is cell-based. The protocol: (§2) In vitro cytotoxic activity was determined against five human cancer cell lines—malignant melanoma (SK-MEL), epidermal carcinoma oral (KB), ductal carcinoma breast (BT-549), ovary carcinoma (SKOV-3) and cervical (HeLa) cancer cells—and two non-cancerous kidney cell lines (LLC-PK1 and Vero). All cell lines were obtained from the American Type Culture Collection (ATCC, Rockville, MD, USA). Each assay was performed in 96-well tissue culture-treated microplates. The cells were seeded at a density of 25,000 cells/well and incubated for 24 h. Samples at different concentrations were added, and the cells were incubated again for 48 h. At the end of the incubation, the cell viability was determined using Neutral Red dye according to a modification of the procedure used by Borenfreund et al.. IC50 values were determined from dose–response curves of the percent growth inhibition against test concentrations. Doxorubicin was used as a positive control, while DMSO was used as the negative (vehicle) control.

A short description of data set [24]: Cytotoxicity, Neutral Red, HeLa. As to conditions: human, HeLa cervical cancer cells, Na = not active up to 50 µg/mL. The class given is cell-based. On the procedure: as §2
Data set [25] can be described thus: Cytotoxicity, Neutral Red, KB. The class given is cell-based. As to conditions: human, KB epidermal carcinoma (oral) cells, Na = not active up to 50 µg/mL. On the procedure: as §2
The nature of data set [26]: Cytotoxicity, Neutral Red, SK-MEL. As to conditions: human, SK-MEL malignant melanoma cells, Na = not active up to 50 µg/mL. The class given is cell-based. On the procedure:
as §2

Data set [27] can be described thus: Cytotoxicity, Neutral Red, SK-OV-3. In kind it is cell-based. Conditions: human, SK-OV-3 ovary carcinoma cells, Na = not active up to 50 µg/mL. The protocol:
as §2

Data set [28] can be described thus: Cytotoxicity, Neutral Red, BT-549. The class given is cell-based. As to conditions: human, BT-549 breast ductal carcinoma cells, Na = not active up to 50 µg/mL. On the procedure:
as §2

The nature of data set [29]: Cytotoxicity, Neutral Red, LLC-PK1. Conditions: pig, LLC-PK1 kidney epithelial cells, Na = not active up to 50 µg/mL. The class given is cell-based. On the procedure:
as §2

[30] abbreviates: HeLa cells, inducer PMA, dash: not inhibited by more than 40% at 50 µmol/L.

Structures are written as SMILES. Values after ≈ are worked out from the molar mass of the structure shown. Like-named read-outs stand apart in the source and are kept apart here. Some results are limits rather than exact numbers.

Regarding `C=C(C)[C@@H]1CCC(C)=C[C@H]1c1c(O)cc(CCCCC)cc1O` [compound 9, cannabidiol, reference compound], the IC50 was 6.1 µM in data set [1]; more than 50 µM in [2] (Homo sapiens, read-out: IC50, Ap-1 (PMA)); 3 µM in data set [3]; 5.5 µM in [4]; 4.1 µM in data set [5]; 4.8 µM in [6]. Further, the half-inhibitory concentration (IC50) in [7] is 5.9 µM; in [8] (Homo sapiens, HeLa, read-out: IC50, E2F (PMA)), more than 50 µM; in data set [9] it was 3 to 6.1 µM; in [10], more than 50 µM; in [11] it was 3.8 µM; in data set [12] it was 5.7 µM. The “IC50, Ap-1 (PMA)” value in [2] (setting [30]) was “inactive”. In addition, the “IC50, E2F (PMA)” value in data set [8] (setting [30]) is “inactive”.

As to `CC(C)=CCC/C(C)=C/Cc1c(O)cc(O)cc1/C=C/c1ccccc1` [compound 13], the 50% inhibitory concentration (IC50) in data set [13] is 2.2 µM; in data set [14], 8.3 µM; in data set [15] it was 4.3 µM; in [16], 4.8 µM; in [17], 4.4 µM; in [18] it was 9.1 µM. The IC50 in data set [19] was 1.9 µM; in data set [20], 2.1 µM; in [21], 4.7 µM; in [22] it was 4.4 µM.

`C=C(C)[C@H]1CCC(C)=C[C@@H]1c1c(O)cc(O)cc1/C=C/c1ccccc1` [compound 12]: the IC50 in data set [13] was 3.5 µM; in [14] it was 7 µM; in data set [15] it was 4.9 µM; in [16] it was 7.7 µM; in [17] it was 10.2 µM; in data set [18], 12.1 µM. Besides, the 50% inhibitory concentration (IC50) in data set [19] was 5.7 µM; in data set [20], less than 5 µM; in [21], 7.3 µM; in data set [22] it was 4.5 µM.

Turning to `COc1cccc2c1C(=O)c1c(O)c3c(c(O)c1C2=O)C[C@@](O)(C(=O)CO)C[C@@H]3O[C@H]1C[C@H](N)[C@H](O)[C@H](C)O1` [Doxorubicin, reference compound], the 50% inhibitory concentration (IC50) at 48 h in data set [23] is more than 5 µg/mL; in [24], 4.3 µg/mL (≈ 7.91 µM); in [25], 2.4 µg/mL (≈ 4.42 µM); in data set [26], 2.2 µg/mL (≈ 4.05 µM); in data set [27], 2 µg/mL (≈ 3.68 µM); in [28], 2.4 µg/mL (≈ 4.42 µM). In data set [29], this molecule yielded a half-maximal inhibitory concentration (IC50) at 48 h of 1.1 µg/mL (≈ 2.02 µM).
